Reference: paper PMC8699473, “An Easily Expandable Multi-Drug LC-MS Assay for the Simultaneous Quantification of 57 Oral Antitumor Drugs in Human Plasma” (Cancers, 2021)

Assay: Short-term stability in spiked pooled human plasma (bench-top, 4 °C, 56 °C)
Settings: for light sensitivity: acceptance limit <85%

Compound	Short-time stability (1h, 56°C) Accuracy [%] (validation standard 2xLLOV)	Short-time stability (24h, 4°C, without daylight) Accuracy [%] (validation standard 2xLLOV)	Short-time stability (24h, RT, with daylight) Accuracy [%] (validation standard 2xLLOV)	Short-time stability (24h, RT, without daylight) Accuracy [%] (validation standard 2xLLOV)	Short-time stability (1h, 56°C) Accuracy [%] (validation standard LLOV)	Short-time stability (24h, 4°C, without daylight) Accuracy [%] (validation standard LLOV)	Short-time stability (24h, RT, with daylight) Accuracy [%] (validation standard LLOV)	Short-time stability (24h, RT, without daylight) Accuracy [%] (validation standard LLOV)	Short-time stability (1h, 56°C) Accuracy [%] (validation standard MOV)	Short-time stability (24h, 4°C, without daylight) Accuracy [%] (validation standard MOV)	Short-time stability (24h, RT, with daylight) Accuracy [%] (validation standard MOV)	Short-time stability (24h, RT, without daylight) Accuracy [%] (validation standard MOV)	Short-time stability (1h, 56°C) Accuracy [%] (validation standard ULOV)	Short-time stability (24h, 4°C, without daylight) Accuracy [%] (validation standard ULOV)	Short-time stability (24h, RT, with daylight) Accuracy [%] (validation standard ULOV)	Short-time stability (24h, RT, without daylight) Accuracy [%] (validation standard ULOV)	light sensitivity
CNC(=O)c1cc(Oc2ccc(NC(=O)Nc3ccc(Cl)c(C(F)(F)F)c3)c(F)c2)ccn1 [Regorafenib]	41.3	95.0	89.4	83.8	32.3	83.3	88.6	80.3	39.7	104.6	90.2	90.8	35.4	101.4	89.0	87.8	–
CC(C)(C)c1nc(-c2cccc(NS(=O)(=O)c3c(F)cccc3F)c2F)c(-c2ccnc(N)n2)s1 [Dabrafenib]	46.2	99.6	98.0	107.6	42.8	112.7	97.0	108.2	42.4	100.0	97.7	99.3	35.6	94.0	100.2	99.7	no losses of concentrations below the acceptance limit
CNC(=O)c1ccc(N2C(=S)N(c3cnc(C#N)c(C(F)(F)F)c3)C(=O)C23CCC3)cc1F [Apalutamide]	46.5	93.0	76.8	80.8	37.6	96.9	72.0	75.7	41.2	84.3	75.7	75.2	29.0	84.2	63.9	63.8	–
CNC(=O)c1ccccc1Sc1ccc2c(/C=C/c3ccccn3)n[nH]c2c1 [Axitinib]	67.7	103.6	107.5	86.7	71.1	129.6	108.7	106.1	54.6	100.6	116.9	99.3	46.2	97.2	123.3	101.6	no losses of concentrations below the acceptance limit
CCOc1cc2ncc(C#N)c(Nc3ccc(OCc4ccccn4)c(Cl)c3)c2cc1NC(=O)/C=C/CN(C)C [Neratinib]	-7.9	79.9	23.2	25.4	-88.6	65.9	-37.5	-39.1	26.0	89.7	37.9	39.2	21.9	81.3	28.5	31.5	–
Nc1cccc2c1C(=O)N(C1CCC(=O)NC1=O)C2=O (centres unmarked) [Pomalidomide]	21.3	94.1	51.2	51.3	38.4	92.5	42.4	42.6	20.6	96.7	51.3	51.2	16.9	88.6	43.6	43.8	–
N#CC[C@H](C1CCCC1)n1cc(-c2ncnc3[nH]ccc23)cn1 [Ruxolitinib]	63.9	97.6	101.6	102.0	63.3	102.2	100.4	105.0	60.9	100.3	100.6	102.2	53.0	95.9	102.3	101.3	–
Cc1cc(Nc2ncc(Cl)c(Nc3ccccc3S(=O)(=O)C(C)C)n2)c(OC(C)C)cc1C1CCNCC1 [Ceritinib]	39.7	95.5	66.9	72.2	42.5	102.1	70.9	77.7	34.6	93.9	84.1	92.2	32.0	92.7	91.8	96.2	–
CCN1CCN(Cc2ccc(Nc3ncc(F)c(-c4cc(F)c5nc(C)n(C(C)C)c5c4)n3)nc2)CC1 [Abemaciclib]	27.9	102.9	88.7	87.4	27.4	93.7	90.1	88.2	34.3	104.5	90.3	91.7	34.9	94.4	88.4	87.5	–
Cc1ccc(NC(=O)c2ccc(CN3CCN(C)CC3)cc2)cc1Nc1nccc(-c2cccnc2)n1 [Imatinib]	–	105.2	86.0	82.7	–	81.3	83.7	83.8	–	102.2	93.6	88.6	–	94.2	85.6	82.9	–
